Data on 25 compounds can be found in patent US11173146B2, “Selective activators of the intermediate conductance CA2+activated K+ channel KCa3.1 and their methods of use” (The Regents of the University of California, priority 2014, dated 2021).

SMILES strings stand for the structures. Entries after “also recorded” stand apart in the source; their conditions may differ. Read-outs that look alike come from different tables or passages of the source.

Series [1] addresses KCa2.1 (Homo sapiens, UniProt Q92952). The conditions noted are these: literature, cited from earlier work.
Series [2] has as its target T1, KCa3.1 (Homo sapiens, UniProt O15554+P0DP23). The conditions noted are these: literature; cited from earlier work.
Series [3] addresses T1, KCa3.1. Put plainly: Whole-cell patch-clamp KCa3.1 activation (QPatch, HEK-293). Set-up: host or cells: HEK-293. The conditions noted are these: for effect of structural change on KCa2.3 and KCa3.1 activation compared with SKA-31: SAR, FIG. 2; for reduction of potency compared with SKA-31: KCa3.1. Format: cell-based. The text has this:
(§1) Cells, Cell lines and Clones. […] The cloning of hKCa2.3 (19 CAG repeats) and hKCa3.1 has been previously described (Wulff et al., 2000). The hKCa2.3 clone was later stably expressed in COS-7 cells at Aurora Biosciences Corp., San Diego, Calif. Cell lines stably expressing other mammalian ion channels were gifts from several sources: hKCa1.1 in HEK-293 cells (Andrew Tinker, University College London); hKV2.1 in HEK293 cells (James Trimmer, UC Davis); KV11.1 (HERG) in HEK-293 cells (Craig January, University of Wisconsin, Madison); hNaV1.4 in HEK-293 cells (Frank Lehmann-Horn, University of Ulm, Germany), hNaV1.5 in HEK-293 cells (Christopher Lossin, University of California Davis), and hCaV1.2 in HEK-293 cells (Franz Hofmann, Munich, Germany).
(§2) Electrophysiology. Experiments were conducted either manually with an EPC-10 amplifier (HEKA, Lambrecht/Pfalz, Germany) or on a QPatch-16 automated electrophysiology platform (Sophion Biosciences, Denmark). […] Patch pipettes were pulled from soda lime glass (micro-hematocrit tubes, Kimble Chase, Rochester, N.Y.) and had resistances of 2-3 MΩ. […] Free Ca^2+ concentrations were calculated with MaxChelator assuming a temperature of 25° C., a pH of 7.2 and an ionic strength of 160 mM. […] Na^+ aspartate Ringer was used as an external solution (in mM): 160 Na^+ aspartate, 4.5 KCl, 2 CaCl2, 1 MgCl2, 5 HEPES, pH 7.4, 290-310 mOsm. […] Reduction of both peak and tail current by the drug was determined. NaV1.7 currents were recorded with 30 ms pulses from −90 mV to −10 mV every 10 sec with a CsF-based pipette solution and normal Ringer as an external solution. CaV1.2 currents were elicited by 100-ms depolarizing pulses from −80 to 20 mV every 10 sec with a CsCl-based pipette solution and an external solution containing 30 mM BaCl2. Blockade of both Na^+ and Ca^2+ currents was determined as reduction of the current minimum.
For automated electrophysiology experiments cells were grown to ˜70% confluency, rinsed in sterile PBS containing 0.02% EDTA, and lifted with 2 mL of TrypLE™ Express (Gibco, Grand Island, N.Y.) for ˜2 min. When cells were rounded but not detached, they were dislodged by gentle tapping, suspended in DMEM, centrifuged and resuspended in 1 ml of external solution, placed into the Qfuge tube and resuspended in 150-200 μL extracellular solution after one additional spin on the QPatch. Whole-cell patch-clamp experiments were then carried out using disposable 16-channel planar patch chip plates (QPlates; patch hole diameter approximately 1 μm, resistance 2.00±0.02 MΩ). […] In order to avoid rejection of cells with large KCa3.1 currents the minimum seal resistance for whole-cell requirement was lowered to 0.001 GΩ. […] Following establishment of the whole-cell configuration, cells were held at −80 mV and KCa3.1, KCa2.1 or KCa2.2 currents elicited by a voltage protocol that held at −80 mV for 20 ms, stepped to −120 mV for 20 ms, ramped from −120 to 40 mV in 200 ms and then stepped back to −120 mV for 20 ms. This pulse protocol was applied every 10 s. […] NaV1.2 currents from N1E-115 cells, NaV1.4 and NaV1.5 currents from stably transfected HEK cells were recorded with 20 ms pulses from −90 mV to 0 mV every 10 sec with a KF-based internal solution and normal Ringer as an external solution. Current slopes (in ampere per sec) were measured using the SophionQPatch software and exported to Microsoft Excel and Origin 7.0 (OriginLab Corp. MA) for analysis. […] Data fitting to the Hill equation to obtain EC50 and IC50 values was performed with Origin 7.0. Data are expressed as mean±SD.

Series [4] has as its target T2, human KCa2.3 (Homo sapiens, UniProt Q9UGI6).
T2 construct: The cloning of hKCa2.3 (19 CAG repeats) and hKCa3.1 has been previously described (Wulff et al., 2000)
Put plainly: Manual whole-cell patch-clamp KCa2.3 activation (COS-7). Format: cell-based.
Excerpt: as §1, §2
For all electrophysiology experiments solutions of benzothiazoles and benzooxazoles were always freshly prepared from 1 mM or 10 mM stock solutions in DMSO during the experiment. The final DMSO concentration never exceeded 1%. For automated assays glass vial inserts (Sophion Biosciences, Denmark) were filled with 350-400 μL of compound solution and placed into the glass insert base plate for use in the QPatch assay right before starting the QPatch.
The compounds synthesized by these methods as well as five commercially available compounds were tested for their KCa2.3 and KCa3.1 activating activity using either manual or automated whole-cell patch-clamp. Our group previously described the establishment of a QPatch assay for KCa3.1 modulators. […] We here made use of this assay and determined EC50 values for KCa3.1 activation using HEK-293 cells stably expressing human KCa3.1. Activities on human KCa2.3 were determined by manual electrophysioiogy since we currently only have KCa2.3 available in COS-7 cells, which are difficult to handle on the QPatch.
For orientation: The patch-clamp technique gives a direct electrical read-out from membranes.

For series [5], the system named is porcine coronary arteries. The series can be described thus: Isometric myography on porcine coronary arteries, bradykinin-induced EDH-type relaxation. The conditions noted are these: blocker 1 μM.
Excerpt: Isometric Myography on Porcine Coronary Arteries (PCA). PCA were carefully dissected from hearts kindly provided by the local abattoir (Mercazaragoza, Zaragoza, Spain), cleaned of fat and connective tissue, and cut into 3-4 mm rings. Rings were mounted on hooks connected to an isometric force transducer (Pioden UF1, Graham Bell House, Canterbury, UK) and were pre-stretched to an initial tension of 1 g. […] Changes in tension were registered using a Mac Lab System/8e program (AD Instruments Inc., Milford, Mass.). The buffer contained the NO-synthase blocker, Nω-nitro-L-arginine (L-NNA, 300 μM), and the cyclooxygenase blocker indomethacin (10 μM) in order to measure EDH-type relaxation. […] After washout, rings were contracted with a high KCl buffer (60 mM) to determine maximal contraction. […] UCL1684 and U46619 were purchased from Tocris (Wiesbaden-Nordenstadt, Germany). Data analysis: EDH-type relaxations were determined as % change of U46619 contraction and are shown relative to the totally relaxed state (w/o U46619).
Setting [6] is: 250 nM free Ca2+, read-out: EC50 for KCa2.3 activation.
Where [7] appears, read: 250 nM free Ca2+, read-out: EC50 for KCa3.1 activation.
The mark [8] stands for this setting: Appendix A, read-out: KCa3.1 EC50 (converted).
[9] abbreviates: Appendix A, read-out: KCa2.3 EC50.

T2 sequence (Q9UGI6 with tags, fused parts or gaps DUP76-80): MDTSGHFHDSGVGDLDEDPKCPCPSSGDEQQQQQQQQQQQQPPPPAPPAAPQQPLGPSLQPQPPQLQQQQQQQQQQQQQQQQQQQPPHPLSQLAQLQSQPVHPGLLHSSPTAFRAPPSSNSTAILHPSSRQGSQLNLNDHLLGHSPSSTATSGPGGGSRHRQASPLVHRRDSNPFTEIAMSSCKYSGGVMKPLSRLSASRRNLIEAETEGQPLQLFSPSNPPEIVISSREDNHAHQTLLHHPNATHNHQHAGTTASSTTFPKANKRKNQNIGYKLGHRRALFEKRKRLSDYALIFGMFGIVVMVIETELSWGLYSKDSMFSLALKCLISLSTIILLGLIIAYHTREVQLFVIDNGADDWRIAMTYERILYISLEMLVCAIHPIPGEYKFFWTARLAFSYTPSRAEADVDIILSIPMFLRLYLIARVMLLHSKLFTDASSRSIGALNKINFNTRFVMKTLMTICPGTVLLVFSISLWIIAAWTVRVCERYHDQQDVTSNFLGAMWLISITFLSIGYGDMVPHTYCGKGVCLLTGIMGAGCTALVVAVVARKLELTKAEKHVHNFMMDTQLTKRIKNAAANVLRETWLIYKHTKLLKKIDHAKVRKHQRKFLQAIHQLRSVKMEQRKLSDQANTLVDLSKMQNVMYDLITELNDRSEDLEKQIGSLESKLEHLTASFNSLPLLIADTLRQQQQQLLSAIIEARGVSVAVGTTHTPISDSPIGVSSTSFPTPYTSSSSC

With `CON=CNc1nc2nccc(C(C)Oc3ccc(Cl)cc3C)n2n1` (single isomer, unassigned; (-)) [(-)-CM-TMPF, N-{7-[1-(4-chloro-2-methylphenoxy)ethyl]-[1,2,4]triazolo[1,5-a]pyrimidin-2-yl}-N′-methoxy-formamidine], the “KCa2.1 currents increased to % of their maximal activity” value in series [1] (Ca2+ concentrations between 10 and 100 nM) is listed as “roughly 40%”.
Regarding `Cc1cc(NC2CCCCC2)nc(-n2nc(C)cc2C)n1` [CyPPA, cyclohexyl-[2-(3,5-dimethyl-pyrazole-1-yl-)6-methyl-pyrimidin-4-yl]-amine], the “activity on KCa3.1” value in series [2] was “completely inactive”. The “activity on KCa2.1” value in series [1] is “completely inactive”.
For the compound `Nc1nc2c(s1)Cc1ccccc1-2` [SKA-69, 8H-Indeno[1,2-d]thiazol-2-amine], the “effect of structural change on KCa2.3 and KCa3.1 activation compared with SKA-31” value (“effect of structural change” below) in series [3] was “reduced both potency and selectivity”.
Consider `Nc1nc2c(s1)CCc1ccccc1-2` [SKA-70, 4,5-Dihydronaphtho[1,2-d]thiazol-2-amine], for which the “effect of structural change” value in series [3] was “reduced both potency and selectivity”.
The term melting point denotes the temperature, or range, at which the solid turns liquid. With `Nc1nc2c(s1)Cc1cc(F)ccc1-2` [SKA-71, 6-Fluoro-8H-indeno[1,2-d]thiazol-2-amine], the melting point was 217 °C (dec.). Moreover, the “effect of structural change” value in series [3] was “reduced both potency and selectivity”.
In general, EC50 refers to the concentration at which the effect is half-maximal. Regarding `Nc1nc2c(cc(Cl)c3ccccc32)s1` [SKA-72, 5-Chloronaphtho[1,2-d]thiazol-2-amine], the melting point amounted to 253 °C. In addition, the EC50 in series [4] (setting [6]) was 335 nM. Also, in series [3] (setting [7]), the EC50 is 110 nM.
On the same counts, the results for `Nc1nc2c(cc3c4c(cccc42)CC3)s1` [SKA-73, 4,5-Dihydroaceoaphtho[5,4-d]thiazol-8-amine] are 257 °C, 1000 nM and 1000 nM.
For the compound `Cc1nc2c(ccc3ccccc32)s1` [SKA-74, 2-methylnaphtho[1,2-d]thiazole], in series [3] (setting [8]), the EC50 is 7800 nM. The “effect of structural change” value in series [3] is recorded as “completely abolished activity”.
In the case of `Nc1nc(-c2cccc3ccccc23)cs1` [SKA-75, 2-Amino-4-(1-naphthyl)thiazole], the “effect of structural change” value in series [3] was “reduced both potency and selectivity”.
Still for that read-out and setting: the result for `Nc1nc(-c2ccc3ccccc3c2)cs1` [SKA-76, 2-amino-4-(2-naphthyl)thiazole] reads “reduced both potency and selectivity”.
As for `Nc1nc2c3c(ccc2s1)CCC3` [SKA-81, 7,8-Dihydro-6H-indeno[4,5-d]thiazol-2-amine], the melting point was found to be 195 °C. In series [3], the “effect of structural change” value is listed as “reduction in potency”.
With `CC1=Nc2c(ccc3ccccc23)C1(C)C` [SKA-92, 2,3,3-trimethyl-3H-benzo[g]indole], the values for the EC50 in series [4] (setting [9]) and in series [3] (setting [8]) were more than 50000 nM and 42000 nM, respectively. In addition, the “effect of structural change” value in series [3] is “completely abolished activity”.
With `Nc1nc2c(ccc3ccccc32)o1` [SKA-102, Naphtho[1,2-d]oxazol-2-amine], the EC50 in series [4] (setting [9]) turned out to be 24000 nM; in series [3] (setting [7]), 2700 nM.
On to `Cc1nc2cc3ccccc3cc2o1` [SKA-104, 2-methylnaphtho[2,3-d]oxazole], for which the EC50 in series [3] (setting [8]) was more than 50000 nM. In addition, in series [3], the “effect of structural change” value is “completely abolished activity”.
For the compound `Nc1nc2c(cc(F)c3ccccc32)s1` [SKA-106, 5-Fluoronaphtho[1,2-d]thiazol-2-amme], in series [3], the “reduction of potency compared with SKA-31” value is listed as “roughly 10 fold”.
As to `N#Cc1cc2sc(N)nc2c2ccccc12` [SKA-107, 2-Aminonaphtho[1,2-d]thiazole-5-carbonitrile], the melting point was 265 °C. In addition, in series [3], the “effect of structural change” value was “reduced potency and selectivity”.
In turn, `Cc1cc(C)c2c(c1)-c1nc(N)sc1CC2` [SKA-108, 6,8-Dimethyl-4,5-dihydronaphtho[1,2-d]thiazol-2-amine] gave a melting point of 159 °C. For the same compound, in series [3], the “effect of structural change” value is “reduced both potency and selectivity”.
With `Cc1cc(C)c2ccc3sc(N)nc3c2c1` [SKA-109, 6,8-Dimethylnaphtho[1,2-d]thiazol-2-amine], the melting point was determined as 157 °C. For the same compound, the “reduction of potency compared with SKA-31” value in series [3] was determined as 10 fold.
Take `Nc1nc2c(ccc3sccc32)s1` [SKA-110, Thieno[2′,3′:5,6]benzo[1,2-d]thiazol-2-amine]: the melting point stood at 161 °C. The “effect of structural change” value in series [3] was “reduction in potency”.
On to `CC1Cc2sc(N)nc2-c2ccccc21` (stereo not shown) [SKA-113, 5-Methyl-4,5-dihydronaphtho[1,2-d]thiazol-2-amine], for which the melting point is 109 °C (dec.). For the same compound, the “effect of structural change” value in series [3] was “reduced both potency and selectivity”.
`COc1cccc2c1CCc1sc(N)nc1-2` [SKA-114, 6-Methoxy-4,5-dihydronaphtho[1,2-d]thiazol-2-amine] registered a melting point of 200 °C. In addition, the “effect of structural change” value in series [3] is “reduced both potency and selectivity”.
Turning to `COc1cc2sc(N)nc2c2ccccc12` [SKA-117, 5-Methoxynaphtho[1,2-d]thiazol-2-amine], the melting point was 213 °C. Moreover, in series [3], the “effect of structural change” value was “reduced potency and selectivity”.
`Cc1cc2oc(N)nc2c2ccccc12` [SKA-120, 5-Methylnaphtho[1,2-d]oxazol-2-amine]: the EC50 is 180 nM in series [3] (setting [7]) and 450 nM in series [3] (setting [8]). Besides, the “selectivity for KCa3.1 over KCa2.3” value in series [3] (ratio of EC50 values) is recorded as approximately 50 fold.
Take `Clc1ccccc1C(c1ccccc1)(c1ccccc1)n1cccn1` [TRAM-34, 1-[(2-chlorophenyl)diphenylmethyl]-1H-pyrazole, reference compound]: the “effect on the potentiation of BK-induced relaxation by SKA-111/SKA-121” value in series [5] is “prevented the increase of relaxation; also recorded: prevented this potentiation”.
Turning to `c1cc2cc(c1)C[n+]1ccc(c3ccccc31)NCc1ccc(cc1)CNc1cc[n+](c3ccccc13)C2` [UCL1684, 6,10-diaza-3(1,3)8,(1,4)-dibenzena-1,5(1,4)-diquinolinacyclodecaphane, reference compound], the “effect on KCa2.3 currents activated by 20 μM SKA-121” value in series [4] (FIG. 4F) was “had a similar effect”.
